Here are results for 16 compounds from PubChem BioAssay (NCI).

Test systems include SF-295 CNS; MALME-3M melanoma; ACHN renal; SF-539 CNS; HOP-62 NSCLC; SK-MEL-2 melanoma; SK-MEL-5 melanoma; SF-268 CNS; MCF7 breast; PC-3 prostate.
Holding throughout (assay): inhibition of tumour cell growth, NCI panel, 48 h

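Method: 48-hour compound exposure of cells in 96-well plates, five concentrations, linear interpolation of endpoints. GI50 = concentration required for 50% inhibition of growth. TGI denotes the concentration required for complete inhibition of growth.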 Some results are limits rather than exact numbers.

Consider `CC1=Nc2c(ccc3c2C(=O)c2ccccc2C3=O)NC(c2ccncc2)C1` (stereo not given), for which the GI50 in the assay on SF-295 CNS was more than 100 µM; in the assay with MALME-3M melanoma, more than 100 µM; in the assay with ACHN renal, 23.5 µM; in the assay on SF-539 CNS, more than 100 µM; in the assay with SK-MEL-2 melanoma it was more than 100 µM. Also, the TGI in the assay with SF-295 CNS, in the assay on MALME-3M melanoma, in the assay on ACHN renal, in the assay with SF-539 CNS, with HOP-62 NSCLC and with SK-MEL-2 melanoma was more than 100 µM throughout. Moreover, in the assay on SK-MEL-5 melanoma, the TGI was more than 100 µM.
Consider `COc1ccc(C(=O)C(C(=O)CCC(=O)Nc2cccc(C(F)(F)F)c2)c2ccccc2)cc1` (stereo not given), for which the TGI in the assay on SF-268 CNS, in the assay with SF-295 CNS, in the assay with MALME-3M melanoma, with ACHN renal, in the assay with SF-539 CNS and in the assay with HOP-62 NSCLC was more than 100 µM in each case. The TGI in the assay on SK-MEL-2 melanoma and in the assay on SK-MEL-5 melanoma was more than 100 µM in each case.
Regarding `CC/C=C\C/C=C\C1CC(=O)NCCCNCCCCN1` (stereo not given), the TGI is more than 100 µM in the assay with SF-268 CNS; more than 100 µM in the assay with SF-295 CNS; 78.9 µM in the assay on MALME-3M melanoma; more than 100 µM with SF-539 CNS; more than 100 µM in the assay on HOP-62 NSCLC; more than 100 µM with SK-MEL-2 melanoma. Moreover, in the assay with SK-MEL-5 melanoma, the TGI is more than 100 µM.
For the compound `c1cc[c]([Sn]([S]c2cccc3cccnc23)([c]2ccccc2)[c]2ccccc2)cc1`, the GI50 in the assay on SF-268 CNS was 0.0469 µM; in the assay with SF-295 CNS, 0.0462 µM; with ACHN renal it was 0.0335 µM; in the assay with SF-539 CNS it was 0.0725 µM; in the assay on HOP-62 NSCLC, 0.103 µM; in the assay on SK-MEL-5 melanoma it was 0.042 µM. Besides, the TGI was determined as 0.241 µM with SF-268 CNS; 0.144 µM in the assay with SF-295 CNS; 0.116 µM with ACHN renal; 0.393 µM in the assay on SF-539 CNS; 0.368 µM in the assay with HOP-62 NSCLC; 0.277 µM in the assay on SK-MEL-5 melanoma.
With `COc1ccc(C2=NC(C)(C)CO2)cc1`, the TGI with SF-268 CNS, in the assay with SF-295 CNS, in the assay on MALME-3M melanoma, in the assay on ACHN renal, in the assay with SF-539 CNS and with HOP-62 NSCLC was more than 100 µM each time. Besides, the TGI with SK-MEL-2 melanoma and with SK-MEL-5 melanoma was more than 100 µM in each case.
For the compound `Clc1ccc(CNc2nc3ccccc3nc2-c2cccs2)c(Cl)c1`, the TGI with SF-268 CNS, in the assay with SF-295 CNS, in the assay with MALME-3M melanoma, in the assay on ACHN renal, with SF-539 CNS and in the assay on HOP-62 NSCLC was more than 100 µM throughout. In addition, the TGI in the assay on SK-MEL-2 melanoma is more than 100 µM.
For `CCOc1cccc2nc3cccc(C(=O)NCCN(C)C)c3nc12`, the TGI is 2.42 µM with MALME-3M melanoma; 3.01 µM with ACHN renal; 6.77 µM in the assay with SF-539 CNS; 2.18 µM with HOP-62 NSCLC; 3.86 µM in the assay on SK-MEL-2 melanoma.
For the compound `Clc1cc(Cl)c2c(Cl)cc(Cl)c3c2c1N=S=N3`, the TGI with SF-268 CNS, in the assay on SF-295 CNS, in the assay on MALME-3M melanoma, in the assay on SF-539 CNS, in the assay on SK-MEL-2 melanoma and in the assay on SK-MEL-5 melanoma was more than 100 µM throughout.
As to `CCOC(=O)Cc1nc(/C(C#N)=C/c2ccco2)[nH]c(=O)c1C#N`, the TGI with SF-295 CNS, with ACHN renal, in the assay on SF-539 CNS, with HOP-62 NSCLC, in the assay with SK-MEL-2 melanoma and in the assay on SK-MEL-5 melanoma was more than 100 µM throughout.
As for `COc1ccc(C2C(N)=NCC2c2ccccn2)cc1` (stereo not given), the TGI in the assay on SF-268 CNS, with SF-295 CNS, in the assay on MALME-3M melanoma, with ACHN renal, in the assay with SF-539 CNS and with HOP-62 NSCLC was more than 100 µM throughout. The TGI with SK-MEL-2 melanoma and in the assay on SK-MEL-5 melanoma was more than 100 µM throughout.
With `Oc1c2c(c(O)c3ccccc13)=N[C@@H](c1ccccc1)[C@H](c1ccccc1)N=2`, the TGI in the assay on SF-268 CNS, with SF-295 CNS, with MALME-3M melanoma, in the assay on ACHN renal, in the assay on SF-539 CNS and in the assay on HOP-62 NSCLC was more than 100 µM throughout. The TGI in the assay with SK-MEL-2 melanoma and in the assay on SK-MEL-5 melanoma was more than 100 µM in each case.
As to `CC1(C)CCc2cc3c(cc2O1)OCCC3=O`, the TGI in the assay with SF-268 CNS, in the assay with SF-295 CNS, in the assay on MALME-3M melanoma, in the assay on ACHN renal, in the assay with SF-539 CNS and in the assay on HOP-62 NSCLC was more than 100 µM in each case. The compound also displayed a TGI with SK-MEL-5 melanoma of more than 100 µM.
For the compound `CN(C)C(=S)/N=c1\ss/c(=N\S(=O)(=O)c2ccccc2)n1-c1ccccc1`, the TGI in the assay on SF-268 CNS was more than 100 µM; with SF-295 CNS it was more than 100 µM; in the assay with MALME-3M melanoma, more than 100 µM; in the assay with ACHN renal, more than 100 µM; in the assay on SF-539 CNS it was more than 100 µM; in the assay with HOP-62 NSCLC it was 98.3 µM. Further, the TGI was more than 100 µM in the assay on SK-MEL-2 melanoma and 78.3 µM with SK-MEL-5 melanoma.
Turning to `CC(O)CN1C(=O)NC(Cc2ccccc2)C1=O` (stereo not given), the TGI in the assay with SF-268 CNS is more than 100 µM; with SF-295 CNS, more than 100 µM; in the assay on ACHN renal it was more than 100 µM; in the assay with SF-539 CNS, more than 100 µM; in the assay on HOP-62 NSCLC, 86.3 µM; in the assay with SK-MEL-2 melanoma, more than 100 µM.
As for `C=C1CC(COc2cc(Cl)nc(N)n2)C1`, the GI50 in the assay on SF-268 CNS was 70.4 µM; in the assay on SF-295 CNS, 34.4 µM; in the assay with MCF7 breast, 39.4 µM; in the assay with MALME-3M melanoma, 93.3 µM; in the assay with ACHN renal, 14.5 µM; with SK-MEL-2 melanoma, 31.4 µM. Further, the GI50 in the assay on SK-MEL-5 melanoma is 44.4 µM. The same compound gave a TGI in the assay with ACHN renal of 74.1 µM.
With `CCCS(=O)(=O)c1nc(NC2CC2)cc(-c2ccc3c(ccn3C3CC(C)(C)NC(C)(C)C3)c2)n1`, the GI50 with SF-268 CNS is 1.88 µM; in the assay on SF-295 CNS it was 1.82 µM; in the assay on ACHN renal, 1.77 µM; with HOP-62 NSCLC, 1.73 µM; in the assay with SK-MEL-2 melanoma it was 1.88 µM; in the assay on PC-3 prostate it was 1.78 µM. For the same compound, the GI50 in the assay with SK-MEL-5 melanoma was 1.72 µM. Besides, the TGI came out at 3.89 µM with SF-268 CNS; 3.47 µM in the assay on SF-295 CNS; 3.35 µM with ACHN renal; 3.4 µM in the assay with HOP-62 NSCLC; 3.41 µM in the assay with SK-MEL-2 melanoma; 3.47 µM in the assay on PC-3 prostate. Also, in the assay with SK-MEL-5 melanoma, the TGI was determined as 3.15 µM.
